Structures can show the parent of a compound that is named as a salt. Active and inactive are the calls of the source. Cut-off read from the data, not from the text of the source, for most assays here: actives have a measured Kd and inactives only a lower limit.
Tests used:
Insulin receptor = Insulin receptor (Homo sapiens, UniProt P06213)
[1] = molecular target: Myosin light chain kinase, smooth muscle (Homo sapiens, UniProt Q15746)
[2] = molecular target: BMP-2-inducible protein kinase (Homo sapiens, UniProt Q9NSY1)
[3] = molecular target: T1, Tyrosine-protein kinase Tec (Homo sapiens, UniProt P42680)
T1 sequence (P42680 whole entry): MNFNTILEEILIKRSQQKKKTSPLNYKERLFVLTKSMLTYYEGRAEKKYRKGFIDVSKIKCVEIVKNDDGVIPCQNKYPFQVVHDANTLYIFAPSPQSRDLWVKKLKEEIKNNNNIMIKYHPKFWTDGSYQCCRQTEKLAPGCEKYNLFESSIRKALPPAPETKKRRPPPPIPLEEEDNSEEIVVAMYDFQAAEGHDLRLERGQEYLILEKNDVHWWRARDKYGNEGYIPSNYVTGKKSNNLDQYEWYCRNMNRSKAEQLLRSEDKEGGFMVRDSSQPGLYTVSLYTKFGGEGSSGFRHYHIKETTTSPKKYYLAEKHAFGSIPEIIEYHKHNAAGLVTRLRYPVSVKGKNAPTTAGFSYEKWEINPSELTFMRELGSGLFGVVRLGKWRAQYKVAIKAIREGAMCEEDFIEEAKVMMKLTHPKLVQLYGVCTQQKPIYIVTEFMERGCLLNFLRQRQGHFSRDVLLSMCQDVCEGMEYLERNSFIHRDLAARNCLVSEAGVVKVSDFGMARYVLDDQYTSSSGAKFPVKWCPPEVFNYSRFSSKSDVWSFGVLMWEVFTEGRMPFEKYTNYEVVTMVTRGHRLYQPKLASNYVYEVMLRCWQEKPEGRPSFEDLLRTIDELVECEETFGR

Ephrin type-A receptor 2 = Ephrin type-A receptor 2 (Homo sapiens, UniProt P29317)
Ephrin type-A receptor 7 = Ephrin type-A receptor 7 (Homo sapiens, UniProt Q15375)
[4] = molecular target: U5 small nuclear ribonucleoprotein 200 kDa helicase (Homo sapiens, UniProt O75643)
[5] = molecular target: T2, Beta-adrenergic receptor kinase 1 (Homo sapiens, UniProt P25098)
T2 sequence (P25098 whole entry): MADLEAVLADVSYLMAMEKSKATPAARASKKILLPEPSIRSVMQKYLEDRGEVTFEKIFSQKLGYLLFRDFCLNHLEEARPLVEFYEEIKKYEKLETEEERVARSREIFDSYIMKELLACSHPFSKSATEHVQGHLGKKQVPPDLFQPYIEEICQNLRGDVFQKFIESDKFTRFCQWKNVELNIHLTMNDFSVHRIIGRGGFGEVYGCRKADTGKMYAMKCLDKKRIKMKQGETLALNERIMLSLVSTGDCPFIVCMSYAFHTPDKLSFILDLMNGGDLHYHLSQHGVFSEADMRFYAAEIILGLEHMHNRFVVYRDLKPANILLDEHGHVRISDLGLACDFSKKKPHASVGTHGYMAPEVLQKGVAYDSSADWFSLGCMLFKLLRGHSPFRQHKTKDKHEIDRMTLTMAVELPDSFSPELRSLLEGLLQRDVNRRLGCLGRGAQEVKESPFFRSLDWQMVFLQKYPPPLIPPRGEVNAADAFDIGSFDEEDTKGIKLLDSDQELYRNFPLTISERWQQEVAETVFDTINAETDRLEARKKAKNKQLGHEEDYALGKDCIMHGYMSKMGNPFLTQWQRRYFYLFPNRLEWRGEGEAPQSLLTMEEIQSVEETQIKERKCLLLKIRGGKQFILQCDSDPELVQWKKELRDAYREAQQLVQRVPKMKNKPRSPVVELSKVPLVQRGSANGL

[6] = molecular target: T3, Peroxisomal acyl-coenzyme A oxidase 3 (Homo sapiens, UniProt O15254)
T3 sequence (O15254 whole entry): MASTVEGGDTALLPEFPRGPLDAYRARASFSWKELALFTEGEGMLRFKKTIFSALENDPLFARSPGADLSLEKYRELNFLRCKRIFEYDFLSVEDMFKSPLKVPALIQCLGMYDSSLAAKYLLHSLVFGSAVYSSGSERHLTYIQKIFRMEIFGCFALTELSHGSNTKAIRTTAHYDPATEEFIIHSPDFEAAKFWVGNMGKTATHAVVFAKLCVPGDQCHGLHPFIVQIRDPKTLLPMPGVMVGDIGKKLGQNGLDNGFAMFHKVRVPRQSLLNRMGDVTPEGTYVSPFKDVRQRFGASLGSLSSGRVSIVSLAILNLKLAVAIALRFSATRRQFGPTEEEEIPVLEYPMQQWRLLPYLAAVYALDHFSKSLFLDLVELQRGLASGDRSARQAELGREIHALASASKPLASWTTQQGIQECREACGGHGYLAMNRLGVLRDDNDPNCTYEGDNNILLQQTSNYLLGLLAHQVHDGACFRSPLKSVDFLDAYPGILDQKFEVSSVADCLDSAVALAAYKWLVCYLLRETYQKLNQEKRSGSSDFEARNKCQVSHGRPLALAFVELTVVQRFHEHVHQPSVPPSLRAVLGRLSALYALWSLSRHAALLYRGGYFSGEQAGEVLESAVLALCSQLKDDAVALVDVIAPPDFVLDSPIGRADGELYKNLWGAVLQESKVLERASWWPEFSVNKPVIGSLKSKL

[7] = molecular target: Receptor-interacting serine/threonine-protein kinase 3 (Homo sapiens, UniProt Q9Y572)
[8] = molecular target: RAC-gamma serine/threonine-protein kinase (Homo sapiens, UniProt Q9Y243)
[9] = molecular target: Cyclin-dependent kinase 3 (Homo sapiens, UniProt Q00526)
[10] = molecular target: Cyclin-dependent kinase 6 (Homo sapiens, UniProt Q00534)
[11] = molecular target: Mitogen-activated protein kinase kinase kinase 4 (Homo sapiens, UniProt Q9Y6R4)
Adenosine kinase = Adenosine kinase (Homo sapiens, UniProt P55263)
[12] = molecular target: Calcium/calmodulin-dependent protein kinase kinase 2 (Homo sapiens, UniProt Q96RR4)
[13] = molecular target: Ribosomal protein S6 kinase alpha-1 (Homo sapiens, UniProt Q15418)
Note: in the data inactive means no Kd found up to 30 µM.

Chain of Adenosine kinase (P55263 whole entry): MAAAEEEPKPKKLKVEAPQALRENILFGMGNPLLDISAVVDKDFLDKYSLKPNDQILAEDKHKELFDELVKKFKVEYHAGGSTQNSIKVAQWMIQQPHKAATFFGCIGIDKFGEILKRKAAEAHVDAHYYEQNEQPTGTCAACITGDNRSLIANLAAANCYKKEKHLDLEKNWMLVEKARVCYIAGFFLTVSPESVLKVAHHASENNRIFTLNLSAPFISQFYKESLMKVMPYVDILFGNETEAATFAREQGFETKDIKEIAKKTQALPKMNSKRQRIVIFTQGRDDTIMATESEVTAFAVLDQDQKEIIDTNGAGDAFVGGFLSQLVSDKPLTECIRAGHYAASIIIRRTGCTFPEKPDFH
Chain of Calcium/calmodulin-dependent protein kinase kinase 2 (Q96RR4 whole entry): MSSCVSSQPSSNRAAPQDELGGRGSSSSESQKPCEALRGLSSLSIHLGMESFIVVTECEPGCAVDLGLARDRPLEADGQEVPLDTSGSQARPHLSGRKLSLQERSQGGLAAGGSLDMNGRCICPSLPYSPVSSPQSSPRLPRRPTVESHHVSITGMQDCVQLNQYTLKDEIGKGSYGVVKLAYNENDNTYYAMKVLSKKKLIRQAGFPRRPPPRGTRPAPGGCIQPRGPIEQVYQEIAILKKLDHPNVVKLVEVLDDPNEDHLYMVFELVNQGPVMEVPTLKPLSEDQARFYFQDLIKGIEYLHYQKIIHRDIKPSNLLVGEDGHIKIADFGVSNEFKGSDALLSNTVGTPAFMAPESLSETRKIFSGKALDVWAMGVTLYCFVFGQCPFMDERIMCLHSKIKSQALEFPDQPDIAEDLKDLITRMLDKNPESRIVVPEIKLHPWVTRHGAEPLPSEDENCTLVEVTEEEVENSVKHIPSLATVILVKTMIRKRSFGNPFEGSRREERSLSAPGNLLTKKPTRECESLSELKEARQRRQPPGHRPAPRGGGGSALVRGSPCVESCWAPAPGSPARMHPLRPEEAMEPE
Chain of U5 small nuclear ribonucleoprotein 200 kDa helicase (O75643 whole entry): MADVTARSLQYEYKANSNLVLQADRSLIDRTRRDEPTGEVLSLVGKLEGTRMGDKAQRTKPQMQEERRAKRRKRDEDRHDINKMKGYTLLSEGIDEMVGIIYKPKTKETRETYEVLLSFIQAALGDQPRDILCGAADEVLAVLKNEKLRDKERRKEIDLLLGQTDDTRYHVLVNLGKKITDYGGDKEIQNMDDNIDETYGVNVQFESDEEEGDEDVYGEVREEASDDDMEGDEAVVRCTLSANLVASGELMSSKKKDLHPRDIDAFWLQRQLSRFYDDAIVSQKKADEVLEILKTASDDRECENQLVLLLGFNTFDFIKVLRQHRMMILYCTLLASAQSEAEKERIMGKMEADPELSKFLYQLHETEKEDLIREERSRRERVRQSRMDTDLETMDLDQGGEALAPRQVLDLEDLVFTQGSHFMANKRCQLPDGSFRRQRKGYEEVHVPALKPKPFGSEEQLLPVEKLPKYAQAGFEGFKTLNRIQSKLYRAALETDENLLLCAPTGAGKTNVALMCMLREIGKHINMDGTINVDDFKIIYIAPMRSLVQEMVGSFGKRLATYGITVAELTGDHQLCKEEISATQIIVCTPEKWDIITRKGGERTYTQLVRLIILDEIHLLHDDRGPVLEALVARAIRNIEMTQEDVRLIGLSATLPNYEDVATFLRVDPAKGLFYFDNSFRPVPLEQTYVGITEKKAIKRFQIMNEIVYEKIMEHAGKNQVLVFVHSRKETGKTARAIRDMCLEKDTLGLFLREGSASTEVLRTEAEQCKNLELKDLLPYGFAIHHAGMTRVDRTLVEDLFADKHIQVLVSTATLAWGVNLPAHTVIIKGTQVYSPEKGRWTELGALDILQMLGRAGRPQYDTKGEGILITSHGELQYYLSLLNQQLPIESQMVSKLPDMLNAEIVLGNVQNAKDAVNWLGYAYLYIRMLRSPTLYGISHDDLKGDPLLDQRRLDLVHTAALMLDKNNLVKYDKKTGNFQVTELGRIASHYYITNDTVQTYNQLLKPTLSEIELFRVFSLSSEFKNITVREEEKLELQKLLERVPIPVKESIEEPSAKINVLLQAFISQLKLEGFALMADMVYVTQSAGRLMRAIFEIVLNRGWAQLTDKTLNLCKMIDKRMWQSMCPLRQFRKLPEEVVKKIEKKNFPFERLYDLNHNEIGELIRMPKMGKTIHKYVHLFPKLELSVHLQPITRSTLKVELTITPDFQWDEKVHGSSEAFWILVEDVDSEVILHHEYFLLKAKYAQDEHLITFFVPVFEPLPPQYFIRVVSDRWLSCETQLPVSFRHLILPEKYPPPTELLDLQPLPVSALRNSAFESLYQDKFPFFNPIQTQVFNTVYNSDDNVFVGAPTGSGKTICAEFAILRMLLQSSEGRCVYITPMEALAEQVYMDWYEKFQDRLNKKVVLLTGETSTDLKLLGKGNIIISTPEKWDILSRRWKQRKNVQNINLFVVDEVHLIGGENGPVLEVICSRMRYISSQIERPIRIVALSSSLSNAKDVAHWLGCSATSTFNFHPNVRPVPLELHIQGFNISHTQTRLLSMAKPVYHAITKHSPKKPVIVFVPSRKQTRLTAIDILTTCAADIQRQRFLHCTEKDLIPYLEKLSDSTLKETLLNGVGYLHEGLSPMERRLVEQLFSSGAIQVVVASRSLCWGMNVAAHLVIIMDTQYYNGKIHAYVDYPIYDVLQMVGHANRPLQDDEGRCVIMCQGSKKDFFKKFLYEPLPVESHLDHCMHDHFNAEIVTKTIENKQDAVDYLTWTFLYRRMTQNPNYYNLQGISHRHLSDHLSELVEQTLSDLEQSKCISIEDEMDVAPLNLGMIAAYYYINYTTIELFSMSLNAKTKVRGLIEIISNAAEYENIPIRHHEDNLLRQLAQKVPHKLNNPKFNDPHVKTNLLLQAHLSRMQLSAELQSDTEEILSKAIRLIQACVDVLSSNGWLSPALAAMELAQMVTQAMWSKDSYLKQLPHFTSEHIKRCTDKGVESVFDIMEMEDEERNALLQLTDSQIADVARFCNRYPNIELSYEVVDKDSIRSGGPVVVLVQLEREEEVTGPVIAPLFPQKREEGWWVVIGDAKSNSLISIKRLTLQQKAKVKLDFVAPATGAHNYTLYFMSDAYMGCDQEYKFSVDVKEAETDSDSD
Chain of Myosin light chain kinase, smooth muscle (Q15746 whole entry): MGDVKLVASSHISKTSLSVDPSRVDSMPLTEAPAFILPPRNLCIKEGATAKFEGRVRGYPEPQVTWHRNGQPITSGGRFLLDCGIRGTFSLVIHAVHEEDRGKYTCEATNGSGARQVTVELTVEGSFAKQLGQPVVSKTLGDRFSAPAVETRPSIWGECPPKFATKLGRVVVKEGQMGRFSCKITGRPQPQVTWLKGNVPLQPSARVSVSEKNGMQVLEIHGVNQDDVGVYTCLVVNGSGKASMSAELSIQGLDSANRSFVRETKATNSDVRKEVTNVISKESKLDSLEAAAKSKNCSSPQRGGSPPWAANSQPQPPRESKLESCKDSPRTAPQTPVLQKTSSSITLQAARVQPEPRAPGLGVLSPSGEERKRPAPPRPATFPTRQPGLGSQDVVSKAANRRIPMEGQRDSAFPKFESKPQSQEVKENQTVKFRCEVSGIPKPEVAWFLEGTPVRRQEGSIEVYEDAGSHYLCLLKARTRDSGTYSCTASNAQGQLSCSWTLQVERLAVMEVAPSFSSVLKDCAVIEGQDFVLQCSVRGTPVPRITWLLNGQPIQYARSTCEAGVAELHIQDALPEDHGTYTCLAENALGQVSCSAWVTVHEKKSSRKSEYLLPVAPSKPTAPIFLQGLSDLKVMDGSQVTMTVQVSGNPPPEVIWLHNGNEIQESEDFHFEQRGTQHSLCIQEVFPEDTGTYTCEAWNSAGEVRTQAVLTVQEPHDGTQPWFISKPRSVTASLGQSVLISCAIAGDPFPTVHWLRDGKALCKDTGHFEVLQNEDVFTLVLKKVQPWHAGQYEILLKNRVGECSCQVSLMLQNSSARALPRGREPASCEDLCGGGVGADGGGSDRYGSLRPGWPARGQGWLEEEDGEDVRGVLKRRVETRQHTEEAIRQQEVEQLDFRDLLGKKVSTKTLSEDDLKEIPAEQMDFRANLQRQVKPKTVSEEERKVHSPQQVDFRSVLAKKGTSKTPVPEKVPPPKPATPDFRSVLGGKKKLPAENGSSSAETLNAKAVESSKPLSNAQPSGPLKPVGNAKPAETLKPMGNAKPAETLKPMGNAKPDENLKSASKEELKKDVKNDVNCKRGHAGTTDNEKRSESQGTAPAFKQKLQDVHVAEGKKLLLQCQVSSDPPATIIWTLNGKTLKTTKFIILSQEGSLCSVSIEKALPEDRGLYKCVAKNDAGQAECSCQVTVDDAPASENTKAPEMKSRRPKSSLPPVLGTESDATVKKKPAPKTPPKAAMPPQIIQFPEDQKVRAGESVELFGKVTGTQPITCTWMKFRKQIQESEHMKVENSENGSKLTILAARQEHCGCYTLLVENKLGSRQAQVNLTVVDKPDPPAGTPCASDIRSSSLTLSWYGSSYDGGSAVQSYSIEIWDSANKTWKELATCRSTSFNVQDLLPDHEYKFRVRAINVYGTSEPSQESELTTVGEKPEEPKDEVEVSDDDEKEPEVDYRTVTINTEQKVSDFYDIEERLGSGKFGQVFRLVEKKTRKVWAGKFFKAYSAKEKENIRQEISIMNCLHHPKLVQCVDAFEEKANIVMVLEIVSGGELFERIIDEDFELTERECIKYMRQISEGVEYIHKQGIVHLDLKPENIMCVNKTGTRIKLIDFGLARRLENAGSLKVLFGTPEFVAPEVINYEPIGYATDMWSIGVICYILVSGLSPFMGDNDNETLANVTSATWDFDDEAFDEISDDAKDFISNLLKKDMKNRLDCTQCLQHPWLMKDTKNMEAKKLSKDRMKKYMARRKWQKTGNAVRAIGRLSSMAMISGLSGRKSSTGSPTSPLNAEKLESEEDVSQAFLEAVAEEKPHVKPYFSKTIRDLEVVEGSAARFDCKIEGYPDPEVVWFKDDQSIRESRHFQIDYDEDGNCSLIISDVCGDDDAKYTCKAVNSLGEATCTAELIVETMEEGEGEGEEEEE

Row | Structure (SMILES) | Kd (Insulin receptor) | Kd [1] | Kd [2] | Kd [3] | Kd (Ephrin type-A receptor 2) | Kd (Ephrin type-A receptor 7) | Kd [4] | Kd [5] | Kd [6] | Kd [7] | Kd [8] | Kd [9] | Kd [10] | Kd [11] | Kd (Adenosine kinase) | Kd [12] | Kd [13]
1 | CC(=O)c1cnc2ccc(-c3cc(Cl)c(O)c(Cl)c3)nc2c1N[C@H]1CC[C@H](CN(C)C)CC1 | > 30 µM (inactive) | > 30 µM (inactive) | 0.245 µM (active) | > 30 µM (inactive) | 0.11 µM (active) | 0.016 µM | > 30 µM (inactive) | > 30 µM (inactive) | > 30 µM (inactive) | 0.324 µM | > 30 µM (inactive) | > 30 µM (inactive) | > 30 µM (inactive) | > 30 µM (inactive) | > 30 µM (inactive) | 0.126 µM (active) | 0.251 µM (active)
2 | C=CC(=O)N1CCC[C@H](n2c(=O)n(-c3ccc(Oc4ccccc4)cc3)c3c(N)ncnc32)C1 | > 30 µM (inactive) | > 30 µM (inactive) | > 30 µM (inactive) | 0.006 µM | > 30 µM (inactive) | > 30 µM (inactive) | > 30 µM (inactive) | > 30 µM (inactive) | > 30 µM (inactive) | > 30 µM (inactive) | > 30 µM (inactive) | > 30 µM (inactive) | > 30 µM (inactive) | > 30 µM (inactive) | > 30 µM (inactive) | > 30 µM (inactive) | > 30 µM (inactive)
3 | Cc1nc2cc(-c3nn(C(C)C)c4ncnc(N)c34)ccc2o1 | > 30 µM (inactive) | > 30 µM (inactive) | > 30 µM (inactive) | > 30 µM (inactive) | > 30 µM (inactive) | > 30 µM (inactive) | > 30 µM (inactive) | > 30 µM (inactive) | > 30 µM (inactive) | 2.38 µM (active) | > 30 µM (inactive) | > 30 µM (inactive) | > 30 µM (inactive) | > 30 µM (inactive) | > 30 µM (inactive) | > 30 µM (inactive) | > 30 µM (inactive)
4 | COCc1c(-c2ccc(NC(=O)Nc3cc(C(F)(F)F)ccc3F)c(F)c2)c2c(N)ncnn2c1CN1CCOCC1 | > 30 µM (inactive) | > 30 µM (inactive) | > 30 µM (inactive) | > 30 µM (inactive) | > 30 µM (inactive) | > 30 µM (inactive) | > 30 µM (inactive) | > 30 µM (inactive) | > 30 µM (inactive) | > 30 µM (inactive) | > 30 µM (inactive) | > 30 µM (inactive) | > 30 µM (inactive) | > 30 µM (inactive) | > 30 µM (inactive) | > 30 µM (inactive) | 4.13 µM (active)

Results, then the compound that gave them:

Row | Kd (Insulin receptor) | Kd [1] | Kd [2] | Kd [3] | Kd (Ephrin type-A receptor 2) | Kd (Ephrin type-A receptor 7) | Kd [4] | Kd [5] | Kd [6] | Kd [7] | Kd [8] | Kd [9] | Kd [10] | Kd [11] | Kd (Adenosine kinase) | Kd [12] | Kd [13] | Structure (SMILES)
5 | 4.04 µM (active) | > 30 µM (inactive) | > 30 µM (inactive) | > 30 µM (inactive) | > 30 µM (inactive) | > 30 µM (inactive) | > 30 µM (inactive) | > 30 µM (inactive) | > 30 µM (inactive) | 6.45 µM (active) | > 30 µM (inactive) | > 30 µM (inactive) | > 30 µM (inactive) | > 30 µM (inactive) | > 30 µM (inactive) | > 30 µM (inactive) | > 30 µM (inactive) | Nc1ncnc2c1c(-c1cccc(OCc3ccccc3)c1)cn2[C@H]1C[C@@H](CN2CCC2)C1 [AEW-541]
6 | > 30 µM (inactive) | > 30 µM (inactive) | > 30 µM (inactive) | > 30 µM (inactive) | > 30 µM (inactive) | > 30 µM (inactive) | > 30 µM (inactive) | > 30 µM (inactive) | > 30 µM (inactive) | > 30 µM (inactive) | > 30 µM (inactive) | > 30 µM (inactive) | > 30 µM (inactive) | > 30 µM (inactive) | > 30 µM (inactive) | > 30 µM (inactive) | > 30 µM (inactive) | Cc1nc(NC(=O)N2CCC[C@H]2C(N)=O)sc1-c1ccnc(C(C)(C)C(F)(F)F)c1 [ALPELISIB]
7 | > 30 µM (inactive) | > 30 µM (inactive) | > 30 µM (inactive) | > 30 µM (inactive) | > 30 µM (inactive) | > 30 µM (inactive) | > 30 µM (inactive) | > 30 µM (inactive) | > 30 µM (inactive) | > 30 µM (inactive) | > 30 µM (inactive) | > 30 µM (inactive) | > 30 µM (inactive) | > 30 µM (inactive) | > 30 µM (inactive) | > 30 µM (inactive) | > 30 µM (inactive) | Cc1csc(-c2nnc(Nc3ccc(Oc4ncccc4-c4ccnc(N)n4)cc3)c3ccccc23)c1 [AMG-900]
8 | > 30 µM (inactive) | > 30 µM (inactive) | 0.0008 µM (active) | > 30 µM (inactive) | > 30 µM (inactive) | > 30 µM (inactive) | > 30 µM (inactive) | > 30 µM (inactive) | > 30 µM (inactive) | > 30 µM (inactive) | > 30 µM (inactive) | > 30 µM (inactive) | > 30 µM (inactive) | > 30 µM (inactive) | – | > 30 µM (inactive) | > 30 µM (inactive) | CCS(=O)(=O)N1CCN(c2ccc(Nc3ncc(C(N)=O)c(NC4CC4)n3)cc2)CC1 [Cerdulatinib Hydrochloride]
9 | 0.144 µM (active) | > 30 µM (inactive) | 0.014 µM (active) | 0.045 µM (active) | 0.032 µM (active) | 0.017 µM (active) | > 30 µM (inactive) | > 30 µM (inactive) | > 30 µM (inactive) | > 30 µM (inactive) | > 30 µM (inactive) | 0.429 µM | > 30 µM (inactive) | > 30 µM (inactive) | – | 2.34 µM (active) | > 30 µM (inactive) | CC(C)c1cc(CNc2nc(Nc3cc(C4CC4)[nH]n3)cc(N3CCN(C)CC3)n2)on1 [XL-228]

Source: ChEMBL document CHEMBL3991601, “The target landscape of clinical kinase drugs” (Science, 2017)
